ChEMBL document CHEMBL1201862, “PubChem BioAssay data set” (2004)
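Step 1: Grow cells in 96-well plates. Step 2: Expose to compound for 48 hours at 5 concentrations. Step 3: Interpolate endpoints linearly; if unreached, use highest concentration. The concentration for 50% growth inhibition is given as GI50.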 Calls of active or inactive are those of the source. Cut-off read from the data, not from the text of the source: active = GI50 up to about 1.1 µM and inactive = higher.

Assays:
Assay in all cases: inhibition of tumour cell growth, NCI panel, 48 h
[1] = test system: A498
[2] = test system: A549
[3] = test system: CCRF-CEM
[4] = test system: DU-145
[5] = test system: HCC 2998
[6] = test system: HOP-62
[7] = test system: HT-29
[8] = test system: IGROV-1
[9] = test system: M14
[10] = test system: MCF7
[11] = test system: NCI-H23
[12] = test system: NCI-H522
[13] = test system: OVCAR-5
[14] = test system: RPMI-8226
[15] = test system: SF-295
[16] = test system: SK-OV-3
[17] = test system: SN12C
[18] = test system: TK-10
[19] = test system: U-251
[20] = test system: UACC-62

SMILES | GI50 [1] | GI50 [2] | GI50 [3] | GI50 [4] | GI50 [5] | GI50 [6] | GI50 [7] | GI50 [8] | GI50 [9] | GI50 [10] | GI50 [11] | GI50 [12] | GI50 [13] | GI50 [14] | GI50 [15] | GI50 [16] | GI50 [17] | GI50 [18] | GI50 [19] | GI50 [20]
C/C(=N\NC(=S)N1CCN(c2ccccn2)CC1)c1ccccn1 | 0.853 µM (active) | 0.111 µM (active) | 0.00337 µM (active) | 1.08 µM (active) | 0.931 µM (active) | 0.035 µM (active) | 0.0745 µM (active) | 0.00151 µM (active) | 0.0431 µM (active) | 0.00782 µM (active) | 0.022 µM (active) | 0.0818 µM (active) | 0.0474 µM (active) | 0.00681 µM (active) | 0.00532 µM (active) | 0.0593 µM (active) | 0.0206 µM (active) | 0.871 µM (active) | 0.00356 µM (active) | 0.00646 µM (active)
CC(=O)/C=C/C=C(\C)CC/C=C(\C)CC(C)C | 22 µM (inactive) | 34 µM (inactive) | 13.5 µM (inactive) | 58.6 µM (inactive) | 18.4 µM (inactive) | 41.3 µM (inactive) | 30.1 µM (inactive) | 28.9 µM (inactive) | 52.2 µM (inactive) | 22.8 µM (inactive) | 23.6 µM (inactive) | 17.6 µM (inactive) | 61.2 µM (inactive) | 17.1 µM (inactive) | 30.8 µM (inactive) | 55.7 µM (inactive) | 31.4 µM (inactive) | > 100 µM (inactive) | 25.4 µM (inactive) | 18.1 µM (inactive)
CC(N/N=C(\S)N1CCCC1)c1cccnn1 (stereo not given) | 4.91 µM (inactive) | 0.342 µM (active) | 0.274 µM (active) | 0.789 µM (active) | 18.5 µM (inactive) | 0.312 µM (active) | 0.426 µM (active) | 0.43 µM (active) | 0.378 µM (active) | 0.308 µM (active) | 0.561 µM (active) | 2.31 µM (inactive) | 0.318 µM (active) | 0.434 µM (active) | 0.451 µM (active) | 0.337 µM (active) | 0.778 µM (active) | 0.54 µM (active) | 0.358 µM (active) | 0.414 µM (active)
O=C1OC(C(O)C(O)C(O)CO)C(O)C1O (stereo not given) | > 100 µM (inactive) | > 100 µM (inactive) | > 100 µM (inactive) | > 100 µM (inactive) | > 100 µM (inactive) | > 100 µM (inactive) | > 100 µM (inactive) | > 100 µM (inactive) | > 100 µM (inactive) | > 100 µM (inactive) | > 100 µM (inactive) | > 100 µM (inactive) | > 100 µM (inactive) | > 100 µM (inactive) | > 100 µM (inactive) | > 100 µM (inactive) | > 100 µM (inactive) | > 100 µM (inactive) | > 100 µM (inactive) | > 100 µM (inactive)
CC/C(Cl)=N\OC(=O)Nc1ccc(F)c([N+](=O)[O-])c1 | 19.9 µM (inactive) | 20.5 µM (inactive) | 2.59 µM (inactive) | 19.5 µM (inactive) | 29.4 µM (inactive) | 19.6 µM (inactive) | 24.9 µM (inactive) | 17.9 µM (inactive) | 10.3 µM (inactive) | 8.81 µM (inactive) | 13.8 µM (inactive) | 1.93 µM (inactive) | 22.7 µM (inactive) | 2.94 µM (inactive) | 20.7 µM (inactive) | 19.1 µM (inactive) | 17.5 µM (inactive) | 11.6 µM (inactive) | 21.5 µM (inactive) | 17.3 µM (inactive)
O=C1C(C(c2ccc([N+](=O)[O-])cc2)N2CCOCC2)=C(O)C(c2ccccc2)N1c1ccccc1 (stereo not given) | > 10 µM (inactive) | > 10 µM (inactive) | > 10 µM (inactive) | > 10 µM (inactive) | > 10 µM (inactive) | > 10 µM (inactive) | > 10 µM (inactive) | > 10 µM (inactive) | > 10 µM (inactive) | > 10 µM (inactive) | > 10 µM (inactive) | > 10 µM (inactive) | > 10 µM (inactive) | > 10 µM (inactive) | > 10 µM (inactive) | > 10 µM (inactive) | > 10 µM (inactive) | > 10 µM (inactive) | > 10 µM (inactive) | > 10 µM (inactive)
COc1cc2c(cc1OCCCC(=O)Nc1cc(C(=O)Nc3cc(C(=O)NCCCN(C)C)n(C)n3)n(C)n1)N=CC1CCCN1C2=O (stereo not given) | 0.411 µM (active) | 36.1 µM (inactive) | 12.5 µM (inactive) | 16.4 µM (inactive) | 17.3 µM (inactive) | 20.1 µM (inactive) | 17 µM (inactive) | 12.8 µM (inactive) | 16 µM (inactive) | 12.6 µM (inactive) | 17.2 µM (inactive) | 7 µM (inactive) | 19.4 µM (inactive) | 18.5 µM (inactive) | 36.1 µM (inactive) | 57.3 µM (inactive) | 16.1 µM (inactive) | 19.7 µM (inactive) | 17 µM (inactive) | 20.1 µM (inactive)
